Measurements as given in the NIST ThermoML archive (doi:10.1016/j.jct.2016.12.032).

Assay: xn = mol fraction of the nth substance listed
Settings: 100 kPa, Liquid; for viscosity: Capillary tube (Ostwald / Ubbelohde) method; for mass density: Vibrating tube method

CC1CCC(=O)O1 (centres undefined) [γ-valerolactone] + CCCC[n+]1ccn(C)c1.O=S(=O)([N-]S(=O)(=O)C(F)(F)F)C(F)(F)F
Settings	mass density, 293.15 K [kg/m3]	mass density, 298.15 K [kg/m3]	mass density, 303.15 K [kg/m3]	viscosity, 293.15 K [mPa·s]	viscosity, 298.15 K [mPa·s]	viscosity, 303.15 K [mPa·s]	viscosity, 308.15 K [mPa·s]
x2 = 0	1053.99	1049.28	1044.58	1.99	1.82	1.67	1.53
x2 = 0.0505	1108.43	1103.66	1098.86	2.51	2.21	1.98	1.81
x2 = 0.1001	1153.24	1148.42	1143.54	3.21	2.76	2.45	2.22
x2 = 0.1492	1191.45	1186.58	1181.67	4.28	3.57	3.13	2.79
x2 = 0.1998	1223.25	1218.36	1213.42	5.6	4.71	4.03	3.53
x2 = 0.3008	1274.04	1269.12	1264.12	8.84	7.2	6.01	5.16
x2 = 0.4031	1317.29	1312.35	1307.33	13.88	11.11	9.11	7.78
x2 = 0.5048	1347.03	1342.1	1337.07	19.18	15.34	12.52	10.6
x2 = 0.6031	1373.16	1368.22	1363.16	25.88	20.69	17.18	14.12
x2 = 0.6973	1393.96	1389.01	1383.94	33.12	26.55	21.62	17.97
x2 = 0.7994	1413.3	1408.36	1403.29	42.31	34.16	27.85	22.82
x2 = 0.8711	1426.6	1421.67	1416.59	50.45	40.79	33.15	27.09
